Experimental data taken from article PMC8976035, “Pharmacodynamic, pharmacokinetic, and phase 1a study of bisthianostat, a novel histone deacetylase inhibitor, for the treatment of relapsed or refractory multiple myeloma” (Acta Pharmacologica Sinica, 2021).
Blank lines part the entries; values can stand above or below the compound they belong to.

Tests used:
[1] = molecular target: hERG (Homo sapiens, UniProt Q12809); settings: cited from earlier work
[2] = cited from earlier work
[3] = molecular target: SIRT1 (Homo sapiens, UniProt Q96EB6); assay: non-HDAC enzyme inhibition selectivity; assay type: biochemical; settings: read-out: Inhibition rate (%) (200 μM)
[4] = molecular target: T1, PTP1B (Homo sapiens, UniProt P18031); assay: non-HDAC enzyme inhibition selectivity; settings: read-out: Inhibition rate (%) (200 μM)
T1 sequence (P18031 1-435): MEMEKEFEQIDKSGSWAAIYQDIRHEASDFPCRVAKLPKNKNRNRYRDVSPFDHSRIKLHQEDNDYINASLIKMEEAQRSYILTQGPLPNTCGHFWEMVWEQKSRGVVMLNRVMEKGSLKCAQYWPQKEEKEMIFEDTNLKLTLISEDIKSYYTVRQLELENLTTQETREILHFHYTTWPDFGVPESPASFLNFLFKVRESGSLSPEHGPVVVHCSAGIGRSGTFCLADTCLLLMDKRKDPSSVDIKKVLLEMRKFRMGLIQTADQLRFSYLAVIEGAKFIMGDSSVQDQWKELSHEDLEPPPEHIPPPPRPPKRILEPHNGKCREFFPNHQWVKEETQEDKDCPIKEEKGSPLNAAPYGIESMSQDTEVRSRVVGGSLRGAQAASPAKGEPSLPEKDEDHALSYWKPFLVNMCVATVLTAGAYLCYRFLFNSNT

[5] = system: HDAC5; settings: cited from earlier work
[6] = system: MM.1S xenograft; assay: MM xenograft mouse model, single agent, 18 days; assay type: in vivo, NOD/SCID mice; settings: for body weight versus control: 18 days treatment
Method: (§1) Tumor size was measured every other day using calipers, and tumor volume was calculated with the formula: V = 0.5 (a × b^2), where a is the long diameter of the tumor and b is the short diameter of the tumor. Mice were killed when the tumor reached 2 cm^3 or was ulcerated. Tumor growth was evaluated from the first day of treatment until the end of experiment.

[7] = system: RPMI-8226 xenograft; assay: MM xenograft mouse model, single agent, 18 days; assay type: in vivo, NOD/SCID mice; settings: for body weight versus control: 18 days treatment
Method: as §1

[8] = molecular target: SIRT2 (Homo sapiens, UniProt Q8IXJ6); assay: non-HDAC enzyme inhibition selectivity; assay type: biochemical; settings: read-out: Inhibition rate (%) (200 μM)
[9] = molecular target: AuroraA (Homo sapiens, UniProt O14965); assay: non-HDAC enzyme inhibition selectivity; settings: read-out: Inhibition rate (%) (200 μM)
[10] = molecular target: DPP4 (Homo sapiens, UniProt P27487); assay: non-HDAC enzyme inhibition selectivity; settings: read-out: Inhibition rate (%) (200 μM)
[11] = molecular target: Braf (Homo sapiens, UniProt P15056); assay: non-HDAC enzyme inhibition selectivity; settings: read-out: Inhibition rate (%) (200 μM)
[12] = set-up: method as in PMID 19356036; settings: rat and dog; cited from earlier work
[13] = molecular target: MMP12 (Homo sapiens, UniProt P39900); assay: non-HDAC enzyme inhibition selectivity; settings: read-out: Inhibition rate (%) (200 μM)
[14] = molecular target: Syk (Homo sapiens, UniProt P43405); assay: non-HDAC enzyme inhibition selectivity; settings: read-out: Inhibition rate (%) (200 μM)
[15] = molecular target: SIRT3 (Homo sapiens, UniProt Q9NTG7); assay: non-HDAC enzyme inhibition selectivity; assay type: biochemical; settings: read-out: Inhibition rate (%) (200 μM)
[16] = molecular target: T2, PKCepsilon (Homo sapiens, UniProt Q02156); assay: non-HDAC enzyme inhibition selectivity; settings: read-out: Inhibition rate (%) (200 μM)
T2 sequence (Q02156 1-737): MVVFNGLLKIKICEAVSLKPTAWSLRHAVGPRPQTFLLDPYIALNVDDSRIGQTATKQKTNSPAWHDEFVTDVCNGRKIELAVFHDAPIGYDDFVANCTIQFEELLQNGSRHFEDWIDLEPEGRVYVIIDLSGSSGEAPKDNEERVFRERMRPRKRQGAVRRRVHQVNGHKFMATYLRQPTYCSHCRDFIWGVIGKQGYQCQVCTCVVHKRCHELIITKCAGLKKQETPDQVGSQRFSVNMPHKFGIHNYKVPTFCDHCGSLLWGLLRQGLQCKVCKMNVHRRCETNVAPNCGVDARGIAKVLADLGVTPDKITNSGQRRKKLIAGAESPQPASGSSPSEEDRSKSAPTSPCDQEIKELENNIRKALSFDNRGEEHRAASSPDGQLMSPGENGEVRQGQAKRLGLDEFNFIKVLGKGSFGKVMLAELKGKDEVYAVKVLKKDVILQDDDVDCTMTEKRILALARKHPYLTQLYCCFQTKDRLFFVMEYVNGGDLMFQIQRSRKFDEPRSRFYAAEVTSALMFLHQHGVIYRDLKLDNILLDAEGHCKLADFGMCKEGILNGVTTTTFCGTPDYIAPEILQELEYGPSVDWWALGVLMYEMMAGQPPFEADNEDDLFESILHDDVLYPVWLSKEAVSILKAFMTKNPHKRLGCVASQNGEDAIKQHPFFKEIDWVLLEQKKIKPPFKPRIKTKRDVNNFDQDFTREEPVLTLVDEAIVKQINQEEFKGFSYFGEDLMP

[17] = system: MM.1S tumor tissues; assay: PD analysis of acetylation in tumor tissue by Western blotting; assay type: in vivo, NOD/SCID mice; settings: 75 mg·kg^-1·d^-1 bid, 1 h after last dose
Method: For PD analysis, mice were killed 1 h after treatment, tumor tissues were collected for WB analysis of acetylated α-tubulin and acetylated histone H3 levels, as before indicated.

[18] = molecular target: T3, Caspase3 (Homo sapiens, UniProt P42574); assay: non-HDAC enzyme inhibition selectivity; settings: read-out: Inhibition rate (%) (200 μM)
T3 sequence (P42574 29-175 limits assumed): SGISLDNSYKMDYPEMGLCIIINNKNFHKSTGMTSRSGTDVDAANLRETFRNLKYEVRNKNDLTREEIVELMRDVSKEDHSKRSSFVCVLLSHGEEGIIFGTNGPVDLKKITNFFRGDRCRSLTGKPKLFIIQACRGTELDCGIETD
T3 sequence (P42574 176-277 limits assumed): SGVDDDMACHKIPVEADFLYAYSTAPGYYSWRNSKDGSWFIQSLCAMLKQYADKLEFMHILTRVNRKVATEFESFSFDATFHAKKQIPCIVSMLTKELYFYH

[19] = 75 mg·kg^-1·d^-1 bid, oral, 18 days

Sequence of hERG (Q12809 whole entry): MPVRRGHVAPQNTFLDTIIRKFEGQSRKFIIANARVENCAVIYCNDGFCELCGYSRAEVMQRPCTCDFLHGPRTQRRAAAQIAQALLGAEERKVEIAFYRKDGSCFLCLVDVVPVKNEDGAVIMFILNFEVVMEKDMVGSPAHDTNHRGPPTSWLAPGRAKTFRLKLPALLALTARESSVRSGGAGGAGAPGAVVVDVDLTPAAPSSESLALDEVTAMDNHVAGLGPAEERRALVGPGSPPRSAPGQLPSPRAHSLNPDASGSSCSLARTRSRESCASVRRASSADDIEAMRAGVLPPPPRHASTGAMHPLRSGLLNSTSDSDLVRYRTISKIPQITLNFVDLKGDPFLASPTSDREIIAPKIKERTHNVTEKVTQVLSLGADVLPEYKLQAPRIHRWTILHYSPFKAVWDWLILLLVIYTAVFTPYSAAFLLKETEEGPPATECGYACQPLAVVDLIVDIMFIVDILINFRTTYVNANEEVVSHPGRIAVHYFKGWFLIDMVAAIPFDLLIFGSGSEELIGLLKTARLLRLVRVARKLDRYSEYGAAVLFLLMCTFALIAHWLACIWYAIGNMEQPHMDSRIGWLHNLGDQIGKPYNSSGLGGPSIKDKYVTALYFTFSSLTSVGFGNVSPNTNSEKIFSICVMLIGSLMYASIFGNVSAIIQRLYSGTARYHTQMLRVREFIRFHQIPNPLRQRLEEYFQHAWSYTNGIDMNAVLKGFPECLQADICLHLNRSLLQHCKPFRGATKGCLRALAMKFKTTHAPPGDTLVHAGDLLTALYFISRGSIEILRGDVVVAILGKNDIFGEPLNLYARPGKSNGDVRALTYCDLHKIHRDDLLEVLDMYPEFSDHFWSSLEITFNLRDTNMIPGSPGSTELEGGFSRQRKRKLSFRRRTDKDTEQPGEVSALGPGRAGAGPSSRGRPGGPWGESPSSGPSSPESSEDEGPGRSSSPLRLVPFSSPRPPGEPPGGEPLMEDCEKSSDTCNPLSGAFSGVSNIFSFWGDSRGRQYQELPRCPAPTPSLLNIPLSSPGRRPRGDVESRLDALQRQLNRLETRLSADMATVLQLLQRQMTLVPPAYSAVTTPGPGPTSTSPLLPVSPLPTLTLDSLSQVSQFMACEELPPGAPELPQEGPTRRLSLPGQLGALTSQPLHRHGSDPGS
Sequence of MMP12 (P39900 106-470, species assumed): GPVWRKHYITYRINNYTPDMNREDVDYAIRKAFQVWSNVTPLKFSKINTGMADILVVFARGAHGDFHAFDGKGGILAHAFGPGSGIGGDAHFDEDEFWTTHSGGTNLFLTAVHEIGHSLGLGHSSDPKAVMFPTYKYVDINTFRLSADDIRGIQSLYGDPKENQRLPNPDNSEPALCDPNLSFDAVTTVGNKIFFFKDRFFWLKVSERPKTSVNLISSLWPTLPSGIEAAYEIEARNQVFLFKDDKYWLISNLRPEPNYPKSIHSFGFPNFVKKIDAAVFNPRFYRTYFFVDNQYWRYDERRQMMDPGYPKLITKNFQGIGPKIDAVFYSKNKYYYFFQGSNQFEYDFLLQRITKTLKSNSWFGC
Sequence of SIRT1 (Q96EB6 whole entry, species assumed): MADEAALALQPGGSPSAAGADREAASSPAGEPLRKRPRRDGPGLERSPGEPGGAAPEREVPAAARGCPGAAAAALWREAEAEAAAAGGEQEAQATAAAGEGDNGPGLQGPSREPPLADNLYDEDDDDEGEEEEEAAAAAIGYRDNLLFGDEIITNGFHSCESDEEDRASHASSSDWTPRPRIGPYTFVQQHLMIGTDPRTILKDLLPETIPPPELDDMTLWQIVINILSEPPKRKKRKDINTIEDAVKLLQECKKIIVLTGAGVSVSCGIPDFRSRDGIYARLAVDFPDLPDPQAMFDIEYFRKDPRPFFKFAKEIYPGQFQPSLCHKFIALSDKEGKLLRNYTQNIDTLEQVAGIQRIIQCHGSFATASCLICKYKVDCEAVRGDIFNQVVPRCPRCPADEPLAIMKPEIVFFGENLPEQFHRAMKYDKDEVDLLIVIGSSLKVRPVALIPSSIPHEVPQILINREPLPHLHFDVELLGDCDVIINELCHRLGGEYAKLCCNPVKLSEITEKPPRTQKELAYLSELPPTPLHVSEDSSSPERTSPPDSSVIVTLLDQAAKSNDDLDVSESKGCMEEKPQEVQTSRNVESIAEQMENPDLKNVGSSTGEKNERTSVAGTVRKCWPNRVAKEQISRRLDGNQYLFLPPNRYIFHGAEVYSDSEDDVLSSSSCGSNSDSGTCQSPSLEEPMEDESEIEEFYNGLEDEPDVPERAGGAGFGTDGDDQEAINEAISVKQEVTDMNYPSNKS
Sequence of DPP4 (P27487 whole entry, species assumed): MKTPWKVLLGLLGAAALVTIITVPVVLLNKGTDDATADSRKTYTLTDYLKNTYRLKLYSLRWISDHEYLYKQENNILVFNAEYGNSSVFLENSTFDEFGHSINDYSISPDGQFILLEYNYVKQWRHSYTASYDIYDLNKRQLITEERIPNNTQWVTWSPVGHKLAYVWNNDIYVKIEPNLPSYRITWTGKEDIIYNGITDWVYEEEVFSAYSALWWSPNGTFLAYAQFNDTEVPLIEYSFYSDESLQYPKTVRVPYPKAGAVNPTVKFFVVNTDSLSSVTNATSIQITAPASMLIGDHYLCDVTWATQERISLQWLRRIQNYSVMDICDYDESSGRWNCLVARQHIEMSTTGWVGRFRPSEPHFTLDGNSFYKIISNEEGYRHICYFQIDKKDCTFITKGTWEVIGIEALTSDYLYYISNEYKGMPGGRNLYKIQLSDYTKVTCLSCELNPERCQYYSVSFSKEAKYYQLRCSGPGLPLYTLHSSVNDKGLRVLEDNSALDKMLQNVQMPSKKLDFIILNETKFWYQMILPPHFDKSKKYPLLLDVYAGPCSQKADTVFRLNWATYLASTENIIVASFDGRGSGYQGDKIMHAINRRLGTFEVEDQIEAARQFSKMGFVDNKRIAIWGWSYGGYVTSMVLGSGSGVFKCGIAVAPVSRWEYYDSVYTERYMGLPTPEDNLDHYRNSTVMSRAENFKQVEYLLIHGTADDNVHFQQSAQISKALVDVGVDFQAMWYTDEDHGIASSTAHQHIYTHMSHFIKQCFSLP
Sequence of AuroraA (O14965 whole entry): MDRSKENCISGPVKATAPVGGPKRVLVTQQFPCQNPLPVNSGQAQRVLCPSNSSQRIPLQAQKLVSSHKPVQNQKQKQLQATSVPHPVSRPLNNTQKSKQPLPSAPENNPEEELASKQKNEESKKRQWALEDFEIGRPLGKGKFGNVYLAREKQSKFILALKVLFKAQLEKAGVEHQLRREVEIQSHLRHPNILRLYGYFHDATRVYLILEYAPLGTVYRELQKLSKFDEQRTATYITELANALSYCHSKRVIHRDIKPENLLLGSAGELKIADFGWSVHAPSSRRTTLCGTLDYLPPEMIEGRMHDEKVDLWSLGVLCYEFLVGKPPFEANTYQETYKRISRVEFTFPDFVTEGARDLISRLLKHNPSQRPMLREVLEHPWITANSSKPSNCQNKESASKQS
Sequence of Braf (P15056 whole entry, species assumed): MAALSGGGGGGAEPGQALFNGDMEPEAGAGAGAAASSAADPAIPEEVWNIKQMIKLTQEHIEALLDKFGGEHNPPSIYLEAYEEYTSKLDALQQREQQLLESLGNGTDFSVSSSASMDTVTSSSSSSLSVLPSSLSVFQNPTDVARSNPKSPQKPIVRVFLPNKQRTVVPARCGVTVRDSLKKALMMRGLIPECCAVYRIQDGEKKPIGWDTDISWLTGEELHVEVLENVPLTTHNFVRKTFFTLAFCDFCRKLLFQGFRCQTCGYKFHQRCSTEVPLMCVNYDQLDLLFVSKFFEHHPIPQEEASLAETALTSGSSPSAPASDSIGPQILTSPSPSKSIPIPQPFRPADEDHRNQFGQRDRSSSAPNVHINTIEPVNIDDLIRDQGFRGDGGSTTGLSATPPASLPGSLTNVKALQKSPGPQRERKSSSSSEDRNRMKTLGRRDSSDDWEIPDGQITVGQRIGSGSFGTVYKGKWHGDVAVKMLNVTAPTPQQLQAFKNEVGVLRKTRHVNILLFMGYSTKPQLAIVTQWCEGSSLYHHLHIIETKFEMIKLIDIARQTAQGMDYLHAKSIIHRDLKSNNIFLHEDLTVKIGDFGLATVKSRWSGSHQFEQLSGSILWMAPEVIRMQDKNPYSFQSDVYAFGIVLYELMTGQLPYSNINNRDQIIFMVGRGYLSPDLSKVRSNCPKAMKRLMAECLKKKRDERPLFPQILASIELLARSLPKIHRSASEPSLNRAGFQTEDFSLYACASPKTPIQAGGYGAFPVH
Sequence of SIRT2 (Q8IXJ6 whole entry, species assumed): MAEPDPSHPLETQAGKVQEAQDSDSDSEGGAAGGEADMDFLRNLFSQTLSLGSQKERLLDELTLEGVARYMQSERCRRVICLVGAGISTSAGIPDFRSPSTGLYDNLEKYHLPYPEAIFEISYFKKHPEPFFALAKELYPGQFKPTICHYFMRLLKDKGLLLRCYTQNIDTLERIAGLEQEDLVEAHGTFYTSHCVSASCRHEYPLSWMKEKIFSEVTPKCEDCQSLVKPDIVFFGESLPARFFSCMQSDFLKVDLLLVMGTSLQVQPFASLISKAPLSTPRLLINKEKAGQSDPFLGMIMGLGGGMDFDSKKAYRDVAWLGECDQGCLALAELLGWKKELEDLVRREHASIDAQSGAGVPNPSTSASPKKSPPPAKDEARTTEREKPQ
Sequence of SIRT3 (Q9NTG7 whole entry, species assumed): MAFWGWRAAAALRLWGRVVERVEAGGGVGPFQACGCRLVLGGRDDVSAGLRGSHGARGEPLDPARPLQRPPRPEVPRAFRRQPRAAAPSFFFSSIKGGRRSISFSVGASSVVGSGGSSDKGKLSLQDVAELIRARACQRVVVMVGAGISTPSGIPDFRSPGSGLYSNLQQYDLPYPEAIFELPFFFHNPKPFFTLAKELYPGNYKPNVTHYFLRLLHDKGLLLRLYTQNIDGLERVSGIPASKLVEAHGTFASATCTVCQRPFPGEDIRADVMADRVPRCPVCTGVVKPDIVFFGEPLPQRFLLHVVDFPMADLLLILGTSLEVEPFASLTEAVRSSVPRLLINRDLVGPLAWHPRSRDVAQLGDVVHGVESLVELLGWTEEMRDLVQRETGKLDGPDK

SMILES: CCCCc1nc2cc(/C=C/C(=O)NO)ccc2n1CCN(CC)CC [SB939, (2E)-3-{2-butyl-1-[2-(diethylamino)ethyl]-1H-benzimidazol-5-yl}-N-hydroxyacrylamide]
- concentration up to which no binding to hERG channels [1]: > 10 µM

SMILES: Cc1[nH]c2ccccc2c1CCNCc1ccc(/C=C/C(=O)NO)cc1 [Panobinostat]
- IC50 ([1]; read-out: IC50 for hERG inhibition): 3100 nM

SMILES: O=C(/C=C/c1cccc(S(=O)(=O)Nc2ccccc2)c1)NO [Belinostat]
- t1/2 [2]: 1.6 h

- inhibition at 200 µM [3]: 7.6 ± 8.8%
- inhibition at 200 µM [4]: 9.3 ± 6.2%
- inhibition at 200 µM [8]: 43.6 ± 0.8%
- inhibition at 200 µM [9]: 18.8 ± 7.8%
- inhibition at 200 µM [10]: 11.3 ± 5.4%
- inhibition at 200 µM [11]: 17.6 ± 9.8%
- inhibition at 200 µM [13]: 61.1 ± 3.3%
- inhibition at 200 µM [14]: 13.7 ± 1.8%
- inhibition at 200 µM [15]: 27.8 ± 9.2%
- inhibition at 200 µM [16]: 0.2 ± 5.7%
- inhibition at 200 µM [18]: 3.9 ± 2.5%
SMILES: O=C(CCCCCCC(=O)Nc1ccccc1)NO [SAHA]
- T/C (%) [6, 19]: 49.40%
- body weight versus control [6]: no significant weight loss
- T/C (%) [7, 19]: 36.37%
- body weight versus control [7]: no significant weight loss
- elimination half-life [12]: short
- oral bioavailability [12]: low
- serum clearance [12]: high
- acetylated α-tubulin and acetylated histone H3 levels in tumor tissues [17]: significant enhancement

SMILES: CC(C)C[C@H](NC(=O)[C@H](Cc1ccccc1)NC(=O)c1cnccn1)B(O)O [PS341]
- body weight versus control [6]: no significant weight loss
- body weight versus control [7]: no significant weight loss
